Assay results published in patent publication US20120124703A1, “NOVEL COPRINUS COMATUS AND TREMELLA MESENTERICA MUSHROOM STRAINS, PRODUCTS AND EXTRACTS THEREOF AND COMPOSITIONS COMPRISING THEM” (PALMED TEVA LTD, priority 2009, published 2012).

Experiments:
[1] = Antioxidant activity, β-carotene bleaching method; format: biochemical
Procedure: β-Carotene Bleaching Method. The antioxidant activity of C. comatus extracts was determined according to the β-carotene bleaching method. A reagent mixture containing 1 ml of (3-carotene (Sigma) solution (0.2 mg/ml in chloroform), 0.02 ml of linoleic acid (Sigma), and 0.2 ml of Tween 80 (Sigma) was evaporated to dryness under a nitrogen stream. Fifty milliliters of oxygenated distilled water and 0.2 ml of mushroom crude extracts (either ethanol or culture liquid) with different concentrations (2-8 mg/ml) were added. Pure methanol or water (0.2 ml) was used as the control, and the blank contained all the earlier chemicals except β-carotene. All these mixtures were then shaken to form a liposome solution and then incubated at 50° C. for 2 h. The absorbance of an aliquot (1 ml) of these liposome solutions at 470 nm was monitored by a spectrophotometer at time intervals of 20 min. Butylated hydroxyanisole (BHA) (Sigma) (2 mg/ml in methanol) was used as the standard. […] The bleaching rate (R) of 13-carotene was calculated according to
where: ln—natural log, a—absorbance at time 0, b—absorbance at time t, and t—incubation interval 20, 40, 60, 80, 100, or 120 min.
The antioxidant activity (AOA) was calculated, in terms of percent inhibition relative to the control, using Equation (2) […]

[2] = Scavenging activity on DPPH radicals; format: biochemical; details: standard BHA 1 mg/ml
Procedure: Scavenging Activity on 1,1-diphenyl-2-picrylhydrazyl. The scavenging activity of extracts from C. comatus was measured on 1,1-diphenyl-2-picrylhydrazyl (DPPH) radicals. An aliquot of 0.5 ml of 0.1 mM DPPH radical (Sigma) in methanol was added to a test tube with 1 mL of mushroom ethanol or water extract of different concentrations (0.5 to 9 mg/mL). Methanol or water was used instead of the mushroom sample as a control. The reaction mixture was vortex-mixed at room temperature and the absorbance was determined immediately after mixing by measuring at 520 nm with a spectrophotometer. Inhibition of free radicals by DPPH was calculated as follows: I (%)=(Ablank−Asample/Ablank)×100, where I is inhibition (%), Ablank is the absorbance of the control reaction (containing all reagents except the test compound), and Asample is the absorbance of the test compound. The extract concentration providing 50% inhibition (EC50) was calculated from the graph of scavenging activity of radical percentage against extract concentration. Butylated hydroxyanisole (BHA) in concentration of 1 mg/ml methanol was used as the standard. Each value is expressed as mean±standard deviation (n=3).
Free-radical scavenging is one of the known mechanisms by which antioxidants inhibit lipid oxidation. […] The decrease in absorbance is taken as a measure of the extent of radical-scavenging.

For `COc1ccc(O)c(C(C)(C)C)c1` [BHA, Butylated hydroxyanisole], the “Antioxidant activity (%) of water extracts” value ([1]; extract concentration 2.0 mg/mL, BHA 2 mg/mL in methanol) was 98.2%, the “Antioxidant activity (%) of ethanol extracts” value ([1]; extract concentration 2.0 mg/ml, BHA 2 mg/ml in methanol) was 98.2% and the “Scavenging ability (% of inhibition)” value [2] was 92.0%.
